From patent publication US5602229A, “Pentapeptide antibiotics” (Gruppo Lepetit S.p.A., priority 1989, dated 1997) come the findings set out here.

A short description of data set [1]: Acid-base titration (pKa). The data set is classed as physicochemical. On the procedure:
Acid-base titrations were carried out under the following conditions: the sample was dissolved in a mixture methyl cellosolve/H2 O 4/1, then an excess of 0.01M HCl in the same solvent mixture was added and the resulting solution was titrated with 0.01N NaOH.

The test system of data set [2] is Staphylococcus aureus Tour. In words: In vitro MIC, two-fold dilution test in microtiter. Conditions: Oxoid ISO-SENSITEST broth, inoculum about 10^4 CFU/ml, 18-24 h at 37° C. The data set is classed as cell-based. On the procedure:
(§1) Broth cultures are diluted enough so that the final inoculum is about 10^4 colony forming units/ml (CFU/ml).

The test system of data set [3] is Streptococcus pneumoniae UC41. Put plainly: In vitro MIC, two-fold dilution test in microtiter. The data set is classed as cell-based. Particulars: Difco Todd-Hewitt broth, inoculum about 10^4 CFU/ml, 18-24 h at 37° C. The method, then: as §1
For data set [4], the system named is Strept. pyogenes C 203. Put plainly: In vitro MIC, two-fold dilution test in microtiter. The data set is classed as cell-based, Streptococcus pyogenes. Particulars: Difco Todd-Hewitt broth, inoculum about 10^4 CFU/ml, 18-24 h at 37° C. On the procedure:
as §1

The test system of data set [5] is Streptococcus faecalis ATCC 7080. In words: In vitro MIC, two-fold dilution test in microtiter. The data set is classed as cell-based. Conditions: Oxoid ISO-SENSITEST broth, inoculum about 10^4 CFU/ml, 18-24 h at 37° C. The method, then: as §1
For data set [6], the system named is Staphylococcus epidermidis ATCC 12228. Put plainly: In vitro MIC, two-fold dilution test in microtiter. The data set is classed as cell-based. Conditions: Oxoid ISO-SENSITEST broth, inoculum about 10^4 CFU/ml, 18-24 h at 37° C. On the procedure:
as §1

For data set [7], the system named is Streptococcus mitis 796. In words: In vitro MIC, two-fold dilution test in microtiter. Particulars: inoculum about 10^4 CFU/ml, 18-24 h at 37° C. The data set is classed as cell-based. The method, then:
as §1

The mark [8] stands for this setting: methyl cellosolve/H2O 4/1, excess 0.01M HCl, titrated with 0.01N NaOH.

Read-outs that look alike come from different tables or passages of the source.

In data set [1] (setting [8]), “reductive cleavage product of ristocetin [Example 8]” returned a pKa2 of 6.2 and a pKa3 of 7.8.

In data set [1], “reductive cleavage product of antibiotic A/40926 [Example 9]” came in with a pKa1 of 4.5, a pKa2 of 5.9 and a pKa3 of 7.5. For the same substance, the “MIC, STAPH. AUREUS TOUR” value in data set [2] is on record as 16 micrograms/ml. Further, the “MIC, STREPT. PNEUMONIAE UC 41” value in data set [3] stood at 16 micrograms/ml. Moreover, the “MIC, STREPT. PYOGENES C 203” value in data set [4] is recorded as 2 micrograms/ml.

Regarding “reductive cleavage product of antibiotic L 17046 [Example 4]”, in data set [1] (setting [8]), the pKa1 was 4.6, the pKa2 turned out to be 5.8 and the pKa3 was found to be 7.5.

For the substance “reductive cleavage product of antibiotic L 17392 [Example 5]”, in data set [1], the pKa1 worked out at 4.5 and the pKa2 was 5.5. Besides, the “MIC, STREPT. FAECALIS ATCC 7080” value in data set [5] is listed as 16 micrograms/ml. Moreover, the “MIC, STAPH. EPIDERMIDIS ATCC 12228” value in data set [6] worked out at 2 micrograms/ml. Further, the “MIC, STAPH. AUREUS TOUR” value in data set [2] was determined as 4 micrograms/ml. In addition, the “MIC, STREPT. PNEUMONIAE UC 41” value in data set [3] was found to be 16 micrograms/ml. Moreover, the “MIC, STREPT. MITIS 796” value in data set [7] is 16 micrograms/ml. The “MIC, STREPT. PYOGENES C 203” value in data set [4] is listed as 8 micrograms/ml.

In turn, “reductive cleavage product of antibiotic L 17054 [Example 3]” showed a pKa1 in data set [1] (setting [8]) of 4.7.

In the case of “reductive cleavage product of vancomycin [Example 6]”, the “MIC, STREPT. FAECALIS ATCC 7080” value in data set [5] is reported as 16 micrograms/ml. In addition, the “MIC, STAPH. EPIDERMIDIS ATCC 12228” value in data set [6] was determined as 32 micrograms/ml. For the same substance, the “MIC, STAPH. AUREUS TOUR” value in data set [2] is on record as 16 micrograms/ml. Moreover, the “MIC, STREPT. PYOGENES C 203” value in data set [4] is 8 micrograms/ml.

In data set [1], “reductive cleavage product of teicoplanin A2 component 2 [Example 2]” displayed a pKa1 of 4.1, a pKa2 of 5.9 and a pKa3 of 7.3. In addition, the “MIC, STREPT. FAECALIS ATCC 7080” value in data set [5] came out at 4 micrograms/ml. Further, the “MIC, STAPH. EPIDERMIDIS ATCC 12228” value in data set [6] came out at 2 micrograms/ml. For the same substance, in data set [2], the “MIC, STAPH. AUREUS TOUR” value turned out to be 8 micrograms/ml. Besides, the “MIC, STREPT. PNEUMONIAE UC 41” value in data set [3] is reported as 4 micrograms/ml. Further, the “MIC, STREPT. MITIS 796” value in data set [7] was determined as 4 micrograms/ml. In addition, the “MIC, STREPT. PYOGENES C 203” value in data set [4] was 1 micrograms/ml.
